Source: ChEMBL document CHEMBL4342408, “Therapeutic potentials of plant iridoids in Alzheimer's and Parkinson's diseases: A review” (Eur J Med Chem, 2019)

Tests used:
[1] = biological target: Microtubule-associated protein tau (Homo sapiens) (UniProt P10636); test: Inhibition of human tau (441 residues) expressed in Escherichia coli BL21(DE3) assessed as reduction in aggregation at 10 uM relative to control
[2] = Inhibition of human tau (441 residues) P301L mutant expressed in Escherichia coli BL21(DE3) assessed as reduction in aggregation
[3] = species: Homo sapiens; test: Inhibition of human tau (441 residues) P301L mutant expressed in Escherichia coli BL21(DE3) assessed as reduction in aggregation at 10 uM relative to control
[4] = Inhibition of beta secretase (unknown origin); parameters: species or system Homo sapiens

Sequence of Microtubule-associated protein tau (Homo sapiens) (P10636 whole entry): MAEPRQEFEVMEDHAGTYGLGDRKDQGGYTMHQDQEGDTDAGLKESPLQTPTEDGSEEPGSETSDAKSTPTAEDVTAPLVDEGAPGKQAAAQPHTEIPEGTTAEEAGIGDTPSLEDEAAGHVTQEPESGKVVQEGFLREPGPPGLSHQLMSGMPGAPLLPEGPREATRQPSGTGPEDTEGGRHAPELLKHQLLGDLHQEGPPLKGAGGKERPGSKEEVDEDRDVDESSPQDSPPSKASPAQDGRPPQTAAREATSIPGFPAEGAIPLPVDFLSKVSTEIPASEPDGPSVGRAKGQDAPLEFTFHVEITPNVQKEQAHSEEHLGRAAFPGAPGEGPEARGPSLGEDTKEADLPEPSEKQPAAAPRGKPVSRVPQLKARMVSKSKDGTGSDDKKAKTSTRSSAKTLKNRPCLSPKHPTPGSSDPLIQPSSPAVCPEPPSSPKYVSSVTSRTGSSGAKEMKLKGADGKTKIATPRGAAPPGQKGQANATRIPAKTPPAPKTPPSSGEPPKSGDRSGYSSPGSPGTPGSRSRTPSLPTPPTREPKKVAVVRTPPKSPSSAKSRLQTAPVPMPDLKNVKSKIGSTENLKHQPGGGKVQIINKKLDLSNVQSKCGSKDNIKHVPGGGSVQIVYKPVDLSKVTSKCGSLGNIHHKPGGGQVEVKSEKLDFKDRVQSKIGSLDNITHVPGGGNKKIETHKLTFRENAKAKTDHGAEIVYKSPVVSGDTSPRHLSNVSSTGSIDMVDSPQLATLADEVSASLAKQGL

inhibition [1]	IC50 [2]	inhibition [3]	Ki [4]	SMILES
79%	1.3 µM	84%	–	C/C=C1/[C@H](O)OC=C(C(=O)OC)[C@H]1CC(=O)OCCc1ccc(O)c(O)c1
–	–	–	55 µM	COC(=O)C1=CO[C@@H](O[C@@H]2O[C@H](CO)[C@@H](O)[C@H](O)[C@H]2O)[C@@H]2[C@@H](C)[C@@H](O)C[C@H]12 [LOGANIN]
